Measurements reported in patent publication US20260376293A1, “METHODS FOR STUDYING GPR158 PHARMACOLOGY AND IDENTIFICATION OF ITS LIGANDS” (UNIVERSITY OF FLORIDA RESEARCH FOUNDATION, INCORPORATED, priority 2022, published 2026).
Where “and” joins values, the source holds several entries; their conditions need not be identical. Equal entries are not always repeated.

Target: T1, GPR158-RGS7/Gβ5 complex (Homo sapiens, UniProt Q5T848)
T1 construct: substituting amino acids to alanine in full-length GPR158; expressed in transfected cells; host or cells: HEK293FT
T1 sequence (Q5T848 24-1215): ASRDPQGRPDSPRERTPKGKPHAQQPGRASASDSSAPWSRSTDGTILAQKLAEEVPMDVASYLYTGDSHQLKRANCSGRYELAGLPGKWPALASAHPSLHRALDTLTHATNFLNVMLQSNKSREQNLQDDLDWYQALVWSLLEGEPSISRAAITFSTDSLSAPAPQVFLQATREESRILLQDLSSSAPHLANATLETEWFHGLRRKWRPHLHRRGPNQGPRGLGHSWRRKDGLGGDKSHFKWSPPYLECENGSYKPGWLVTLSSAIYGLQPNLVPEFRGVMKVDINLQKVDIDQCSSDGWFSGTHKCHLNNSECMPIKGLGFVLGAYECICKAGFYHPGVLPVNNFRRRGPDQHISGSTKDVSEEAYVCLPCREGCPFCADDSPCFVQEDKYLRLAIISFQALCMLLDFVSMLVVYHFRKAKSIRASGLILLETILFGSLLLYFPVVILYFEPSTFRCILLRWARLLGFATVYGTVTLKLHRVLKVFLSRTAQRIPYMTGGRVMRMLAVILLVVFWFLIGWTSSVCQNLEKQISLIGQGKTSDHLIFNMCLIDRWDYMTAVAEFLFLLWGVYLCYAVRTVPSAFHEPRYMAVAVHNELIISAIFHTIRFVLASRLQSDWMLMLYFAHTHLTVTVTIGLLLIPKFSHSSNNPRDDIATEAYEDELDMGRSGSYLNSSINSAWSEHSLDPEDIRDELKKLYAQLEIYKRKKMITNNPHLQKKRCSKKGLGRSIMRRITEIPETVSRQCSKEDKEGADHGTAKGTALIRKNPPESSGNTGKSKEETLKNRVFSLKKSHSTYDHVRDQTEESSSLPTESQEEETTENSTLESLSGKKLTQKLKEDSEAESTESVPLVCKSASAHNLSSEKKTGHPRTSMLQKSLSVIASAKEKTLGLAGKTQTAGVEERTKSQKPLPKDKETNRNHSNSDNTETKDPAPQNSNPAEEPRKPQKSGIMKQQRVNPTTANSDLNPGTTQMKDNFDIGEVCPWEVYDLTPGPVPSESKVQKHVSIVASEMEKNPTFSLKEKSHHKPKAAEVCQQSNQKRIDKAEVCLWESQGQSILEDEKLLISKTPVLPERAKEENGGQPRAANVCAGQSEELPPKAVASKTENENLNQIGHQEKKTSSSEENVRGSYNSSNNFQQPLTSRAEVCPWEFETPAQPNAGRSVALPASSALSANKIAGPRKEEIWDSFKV
T1 sequence (P49802 1-495 partner): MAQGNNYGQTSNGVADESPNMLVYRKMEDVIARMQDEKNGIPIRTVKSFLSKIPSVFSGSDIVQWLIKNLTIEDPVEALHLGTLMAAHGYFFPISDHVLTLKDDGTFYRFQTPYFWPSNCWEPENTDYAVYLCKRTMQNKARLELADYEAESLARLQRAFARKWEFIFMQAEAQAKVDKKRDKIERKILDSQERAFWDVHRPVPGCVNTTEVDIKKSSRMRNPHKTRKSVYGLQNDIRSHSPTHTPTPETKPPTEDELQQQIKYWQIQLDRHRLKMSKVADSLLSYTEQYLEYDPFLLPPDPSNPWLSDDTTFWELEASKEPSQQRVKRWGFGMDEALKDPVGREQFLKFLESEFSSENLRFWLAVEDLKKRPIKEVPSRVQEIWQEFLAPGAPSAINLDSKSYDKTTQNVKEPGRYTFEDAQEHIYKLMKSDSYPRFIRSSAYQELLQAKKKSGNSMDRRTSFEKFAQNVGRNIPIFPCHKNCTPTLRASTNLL
T1 sequence (O14775 1-395 partner): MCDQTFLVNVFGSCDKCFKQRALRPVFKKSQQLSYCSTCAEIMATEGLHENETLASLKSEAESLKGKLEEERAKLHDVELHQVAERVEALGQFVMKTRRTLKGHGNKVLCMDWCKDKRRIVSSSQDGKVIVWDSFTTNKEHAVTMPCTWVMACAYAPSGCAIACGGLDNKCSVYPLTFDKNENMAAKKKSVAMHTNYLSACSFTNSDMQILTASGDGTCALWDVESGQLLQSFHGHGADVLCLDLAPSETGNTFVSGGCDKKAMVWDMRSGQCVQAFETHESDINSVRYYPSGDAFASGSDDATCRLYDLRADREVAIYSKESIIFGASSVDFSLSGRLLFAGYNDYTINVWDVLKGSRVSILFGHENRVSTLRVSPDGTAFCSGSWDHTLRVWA
Assay: BRET GAP assay, Gαo deactivation (KGAP)
Format: cell-based
Conditions: for IC50: GPR158/RGS7/Gβ5, Gαo, D2R, n=4 in triplicate, mean±s.e.m., read-out: IC50 (change in GAP activity, KGAP)
Protocol: FIGS. 3A-3D. Effect of taurine on Gαo deactivation mediated by GPR158-RGS7/Gβ5 complex. A and B) Representative traces of BRET signal showing Gαo activation mediated by D2R upon application of dopamine (100 μM) at t=0 s and Gαo deactivation triggered by injection of haloperidol (100 μM) at t=15 s (arrow). Time courses were examined without or with taurine (100 μM) incubation in mock transfected cells or cells transfected with GPR158. C) Quantification of deactivation time constant of the reactions presented in 3A and 3B. 1/τ is calculated from deactivation curves of 5 independent experiments each performed in triplicate for each transfection condition. Data shown represent mean±s.e.m. ****p<0.0001, ns=p>0.05 (two-way ANOVA). Columns with no fill (Mock), columns with dotted fill (Taurine) D) Dose response profile of changes in GAP activity (KGAP) calculated by subtracting the baseline deactivation rate (1/τ) from the rate of the reaction in the presence of the GPR158/RGS7/Gβ5. […] Data shown represent mean±s.e.m of 4 independent experiments each conduced in triplicate.
FIGS. 4A-4E. Glycine slows deactivation of Gαo by GPR158-RGS7/Gβ5 complex A) Schematics of the BRET-based GAP assay. G proteins are activated at t=0 s by stimulating GPCR (D2R, 0.1 mM). After reaching steady state the GPCR activity is terminated by injection of haloperidol (0.1 mM) at t=15 s (arrow). G protein deactivation is then monitored by dissociation of the Venus-Gβγ from masGRK3ct-Nluc reporter which occurs upon GTP hydrolysis by Gαo quenching the BRET signal. B and C) Representative traces of BRET signal showing Gαo activation and deactivation time course with or without glycine (100 μM) treatment in cells without GPR158 (b) or cells transfected with GPR158 (c). D) Quantification of deactivation time constant of the reactions presented in panels b and c. 1/τ is calculated from deactivation curves of n=5 independent experiments in triplicate from each cell transfection group. Data shown represent mean±s.e.m. ****p<0.0001, ns, p>0.05 (two-way ANOVA). Columns with no fill (Mock), columns with dotted fill (Glycine), columns with angled-line fill (Taurine) E) Dose response profile of changes in GAP activity (KGAP) calculated by subtracting the baseline deactivation rate (1/τ) from the rate of the reaction in the presence of the GPR158/RGS7/Gβ5. […] Data shown represent mean±s.e.m of n=4 independent experiments each conduced in triplicate.
To understand how glycine action on GPR158 regulates intracellular cAMP the inventors focused on GPR158 interaction with RGS7/Gβ5, an established GTPase Activating Protein (GAP) for the Gαi/o proteins (38) known to regulate cAMP production (39). The inventors used a well-established cell-based assay to monitor GAP activity by following kinetics of G protein deactivation (40) (FIG. 4A). In this assay, activation of G proteins by GDP/GTP exchange in response to GPCR stimulation generates the BRET signal upon interaction of liberated Venus-Gβγ subunits with the masGRK3CT-Nluc reporter.
Cellular measurements of BRET between Venus-Gβ1γ2 and masGRK3ct-Nluc were performed to examine GAP activity of RGS protein in living cells (described in detail in Masuho et al., 2015 (40)). Cells were co-transfected with the pcDNA3.1(+) plasmid coding for dopamine D2 receptor (1), GαoA (2), masGRK3ct-Nluc (1), Venus-156-239-Gβ1 (1), Venus-1-155-Gγ2 (1), and when indicated with RGS7/Gβ5 (2), GPR158 (1) (in parenthesis the ratio of transfected DNA). […]

Row | Compound | potency of taurine as compared to glycine (GAP assay IC50 comparison) | IC50 | effect on Gαo deactivation (GPR158 co-expressed with RGS7/Gβ5, 100 μM) | effect on Gαo deactivation without GPR158 (baseline or RGS7/Gβ5 without GPR158, glycine 100 μM)
1 | NCCS(=O)(=O)O [taurine, 2-aminoethanesulfonic acid] | approximately two-fold lower potency | ~6 µM and 5.89 µM |  | 
2 | NCC(=O)O [glycine] |  | ~3 µM and 2.93 µM | significantly decelerated Gαo deactivation | no effect on either baseline Gαo deactivation or RGS7/Gβ5-assisted process
